In patent US20230322767A1, “ARYL SUBSTITUTED PYRROLO-PYRIDINONES AND THERAPEUTIC USES THEREOF” (Bayer Aktiengesellschaft, priority 2020, published 2023):
Where two headings read alike, the source gives them in different places.

Key:
Assay type in all cases: biochemical
[1] = molecular target: CSNK1A1 (Homo sapiens (Human), UniProt P48729); experiment: CSNK1A1 Assay 2 (ADP-Glo, 1 μM ATP); settings: median, read-out: CSNK1A1 Assay 2 IC50 [mol/l] (median)
In short: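 Enzyme (~0.0375 ng/μL) preincubated 15 min at 22° C with compound in HEPES pH 7.5 buffer, then reacted with 1 μM ATP and biotin-Ahx-KRRRAL-pS-VASLPGL peptide. ADP product measured by ADP-Glo luminescence after 1 h ATP depletion and 1 h detection at 22° C.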

[2] = molecular target: CSNK1D (Homo sapiens (Human), UniProt P48730); experiment: CSNK1D Assay (ADP-Glo, 1 μM ATP); settings: median, read-out: CSNK1D IC50 [mol/l] (median)
In short: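 Enzyme preincubated with compound 15 min at 22° C in 50 mM HEPES pH 7.5 buffer with 10 mM MgCl2, 1 mM DTT; kinase reaction run at 1 μM ATP with biotinylated peptide substrate. ADP formed was detected by ADP-Glo luminescence as the measure of activity.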

[3] = molecular target: wild-type Epidermal Growth Factor Receptor (EGFR) (Homo sapiens (Human), UniProt P00533); experiment: WT-EGFR Kinase Assay (TR-FRET, 2 mM ATP)
In short: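 GST-tagged human EGFR (R669–A1210, Sf9-expressed) preincubated 15 min at 22° C with compound in pH 7.0 Hepes/MgCl2 buffer, then reacted at 2 mM ATP with a biotinylated peptide substrate. Phosphorylation detected by TR-FRET (streptavidin-XL665, Tb-cryptate anti-phosphotyrosine) as the 665/620 nm emission ratio.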

[4] = read-out: EGFR Wildtyp 2 mM ATP IC50 [mol/l] (median), median or individual measurements
[5] = EGFR Wildtyp 2 mM ATP IC50 [mol/l] (median), median or individual measurements

Sequence of wild-type Epidermal Growth Factor Receptor (EGFR) (P00533 669-1210): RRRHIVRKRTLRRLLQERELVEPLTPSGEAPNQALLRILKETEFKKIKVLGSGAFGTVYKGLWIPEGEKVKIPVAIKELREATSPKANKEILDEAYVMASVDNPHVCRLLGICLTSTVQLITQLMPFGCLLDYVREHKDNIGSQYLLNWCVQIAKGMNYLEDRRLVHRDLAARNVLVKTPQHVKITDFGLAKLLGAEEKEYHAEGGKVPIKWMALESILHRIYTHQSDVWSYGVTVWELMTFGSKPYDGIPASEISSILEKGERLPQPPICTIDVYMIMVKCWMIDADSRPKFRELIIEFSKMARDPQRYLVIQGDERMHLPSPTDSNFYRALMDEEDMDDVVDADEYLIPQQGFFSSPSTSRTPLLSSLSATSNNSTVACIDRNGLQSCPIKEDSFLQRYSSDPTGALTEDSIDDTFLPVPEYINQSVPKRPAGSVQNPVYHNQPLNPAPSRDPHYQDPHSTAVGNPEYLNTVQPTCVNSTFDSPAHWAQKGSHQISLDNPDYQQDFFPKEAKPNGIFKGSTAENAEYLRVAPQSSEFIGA
Sequence of CSNK1D (P48730 whole entry): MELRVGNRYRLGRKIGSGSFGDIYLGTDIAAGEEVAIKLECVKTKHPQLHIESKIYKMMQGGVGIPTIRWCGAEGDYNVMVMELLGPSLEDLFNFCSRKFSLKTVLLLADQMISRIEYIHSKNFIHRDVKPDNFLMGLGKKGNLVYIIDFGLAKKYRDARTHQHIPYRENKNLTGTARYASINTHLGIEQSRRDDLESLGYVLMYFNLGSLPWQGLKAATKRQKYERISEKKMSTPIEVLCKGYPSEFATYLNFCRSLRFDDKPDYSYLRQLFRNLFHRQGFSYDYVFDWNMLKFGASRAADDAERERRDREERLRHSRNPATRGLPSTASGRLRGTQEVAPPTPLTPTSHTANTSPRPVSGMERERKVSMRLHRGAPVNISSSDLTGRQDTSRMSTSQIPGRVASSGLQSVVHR
Sequence of CSNK1A1 (P48729 whole entry): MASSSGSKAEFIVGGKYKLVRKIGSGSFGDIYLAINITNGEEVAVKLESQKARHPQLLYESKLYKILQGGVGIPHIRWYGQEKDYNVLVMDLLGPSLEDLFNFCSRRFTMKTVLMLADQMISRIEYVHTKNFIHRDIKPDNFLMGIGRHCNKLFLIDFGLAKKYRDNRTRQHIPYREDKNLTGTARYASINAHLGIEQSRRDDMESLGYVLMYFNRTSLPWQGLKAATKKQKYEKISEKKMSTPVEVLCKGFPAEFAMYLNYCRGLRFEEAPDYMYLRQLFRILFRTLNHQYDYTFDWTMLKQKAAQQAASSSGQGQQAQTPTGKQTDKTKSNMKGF

CN1CC(C)(C)c2[nH]c(-c3ccnc(NC(=O)C(CC(F)F)c4ccc(F)cc4)c3)c(-c3ccccc3)c2C1=O (single isomer, unassigned; (+)) [Example 152, (+)-4,4-difluoro-2-(4-fluorophenyl)-N-[4-(5,7,7-trimethyl-4-oxo-3-phenyl-4,5,6,7-tetrahydro-1H-pyrrolo[3,2-c]pyridin-2-yl)pyridin-2-yl]butanamide]
IC50 [1]: 4.3 nM
IC50 [2]: 4.5 nM
IC50 [3, 4]: > 20000 nM

CN1CCc2[nH]c(-c3ccnc(NC(=O)Cc4ccc(C(=O)N5CCNCC5)cc4)c3)c(-c3ccc(F)cc3)c2C1=O [Example 144, N-{4-[3-(4-fluorophenyl)-5-methyl-4-oxo-4,5,6,7-tetrahydro-1H-pyrrolo[3,2-c]pyridin-2-yl]pyridin-2-yl}-2-[4-(piperazine-1-carbonyl)phenyl]acetamide]
IC50 [1]: 2 nM
IC50 [2]: 3 nM
IC50 [3, 4]: 3620 nM

Cc1ccccc1-c1c(-c2ccnc(NC(=O)C(C)c3ccc(F)cc3)c2)[nH]c2ccn(C)c(=O)c12 (racemic) [Example 111, 2-(4-fluorophenyl)-N-{4-[5-methyl-3-(2-methylphenyl)-4-oxo-4,5-dihydro-1H-pyrrolo[3,2-c]pyridin-2-yl]pyridin-2-yl}propanamide]
IC50 [1]: 37 nM
IC50 [2]: 22 nM
IC50 [3, 5]: > 20000 nM

O=C(Cc1ccc(F)cc1)Nc1cc(-c2[nH]c3cc[nH]c(=O)c3c2-c2ccccc2)ccn1 [Example 73, 2-(4-fluorophenyl)-N-[4-(4-oxo-3-phenyl-4,5-dihydro-1H-pyrrolo[3,2-c]pyridin-2-yl)pyridin-2-yl]acetamide]
IC50 [1]: 1.9 nM
IC50 [2]: 5.4 nM
IC50 [3, 4]: > 20000 nM

Cn1cc(CC(F)(F)F)c2[nH]c(-c3ccnc(NC(=O)C(CC(F)F)c4ccc(F)cc4)c3)c(-c3ccccn3)c2c1=O (racemic) [Example 162, (2RS)-4,4-difluoro-2-(4-fluorophenyl)-N-{4-[5-methyl-4-oxo-3-(pyridin-2-yl)-7-(2,2,2-trifluoroethyl)-4,5-dihydro-1H-pyrrolo[3,2-c]pyridin-2-yl]pyridin-2-yl}butanamide]
IC50 [1]: 14 nM
IC50 [2]: 12 nM
IC50 [3, 5]: > 20000 nM

CC(C(=O)Nc1cc(-c2[nH]c3c(c2-c2cccnc2)C(=O)NC(C)(C)C3)ccn1)c1ccc(F)cc1 (racemic) [Example 97, N-{4-[6,6-dimethyl-4-oxo-3-(pyridin-3-yl)-4,5,6,7-tetrahydro-1H-pyrrolo[3,2-c]pyridin-2-yl]pyridin-2-yl}-2-(4-fluorophenyl)propanamide]
IC50 [1]: 8.1 nM
IC50 [2]: 14 nM
IC50 [3, 5]: > 20000 nM

O=C(Nc1cc(-c2[nH]c3c(c2-c2ccccc2)C(=O)N(C2CC2)CC3)ccn1)C(CC(F)F)c1ccc(F)cc1 (racemic) [Example 156, (2RS)—N-(4-(5-cyclopropyl-4-oxo-3-phenyl-4,5,6,7-tetrahydro-1H-pyrrolo[3,2-c]pyridin-2-yl)pyridin-2-yl)-4,4-difluoro-2-(4-fluorophenyl)butanamide]
IC50 [1]: 2.3 nM
IC50 [2]: 3.1 nM
IC50 [3, 5]: > 20000 nM

CC(C(=O)Nc1cc(-c2[nH]c3ccn(C)c(=O)c3c2-c2ccccc2)ccn1)c1ccc(F)cc1 (single isomer, unassigned) [Example 105, 2-(4-fluorophenyl)-N-[4-(5-methyl-4-oxo-3-phenyl-4,5-dihydro-1H-pyrrolo[3,2-c]pyridin-2-yl)pyridin-2-yl]propanamide]
IC50 [1]: 0.71 nM
IC50 [2]: 1.5 nM
IC50 [3, 5]: 8220 nM

CC(C(=O)Nc1cc(-c2[nH]c3c(c2-c2ccccc2)C(=O)N(C)C2(CCC2)C3)ccn1)c1ccc(F)cc1 (racemic) [Example 52, 2-(4-fluorophenyl)-N-[4-(5′-methyl-4′-oxo-3′-phenyl-1′,4′,5′,7′-tetrahydrospiro[cyclobutane-1,6′-pyrrolo[3,2-c]pyridin]-2′-yl)pyridin-2-yl]propanamide]
IC50 [1]: 3.4 nM
IC50 [2]: 3.8 nM

CN1CCc2[nH]c(-c3ccnc(NC(=O)C(CC(F)F)c4ccc(F)cc4)c3)c(-c3ccccc3)c2C1=O (single isomer, unassigned) [Example 3, 4,4-difluoro-2-(4-fluorophenyl)-N-[4-(5-methyl-4-oxo-3-phenyl-4,5,6,7-tetrahydro-1H-pyrrolo[3,2-c]pyridin-2-yl)pyridin-2-yl]butanamide]
IC50 [1]: 4.7 nM
IC50 [2]: 5.9 nM

CN1CC(CC2CC2)c2[nH]c(-c3ccnc(NC(=O)C(CC(F)F)c4ccc(F)cc4)c3)c(-c3ccccc3)c2C1=O (stereo not drawn) [Example 59, N-{4-[7-(cyclopropylmethyl)-5-methyl-4-oxo-3-phenyl-4,5,6,7-tetrahydro-1H-pyrrolo[3,2-c]pyridin-2-yl]pyridin-2-yl}-4,4-difluoro-2-(4-fluorophenyl)butanamide]
IC50 [1]: 4.9 nM
IC50 [2]: 3.6 nM

CC(C(=O)Nc1cc(-c2[nH]c3c(c2-c2ccccc2)C(=O)N(C)CC3CC(F)(F)F)ccn1)c1ccc(F)cc1 (stereo not drawn) [Example 13, 2-(4-fluorophenyl)-N-{4-[5-methyl-4-oxo-3-phenyl-7-(2,2,2-trifluoroethyl)-4,5,6,7-tetrahydro-1H-pyrrolo[3,2-c]pyridin-2-yl]pyridin-2-yl}propanamide]
IC50 [1]: 3.5 nM
IC50 [2]: 3.9 nM

Cc1cn(C)c(=O)c2c(-c3ccc(F)cc3)c(-c3ccnc(NC(=O)C(C)c4ccc(F)cc4)c3)[nH]c12 (single isomer, unassigned; (-)) [Example 31, (−)-2-(4-fluorophenyl)-N-{4-[3-(4-fluorophenyl)-5,7-dimethyl-4-oxo-4,5-dihydro-1H-pyrrolo[3,2-c]pyridin-2-yl]pyridin-2-yl}propanamide]
IC50 [1]: 53 nM
IC50 [2]: 14 nM

Cn1cc(CC(F)(F)F)c2[nH]c(-c3ccnc(NC(=O)C(CC(F)F)c4ccc(F)cc4)c3)c(-c3ccc(F)cc3)c2c1=O (single isomer, unassigned) [Example 28, 4,4-difluoro-2-(4-fluorophenyl)-N-{4-[3-(4-fluorophenyl)-5-methyl-4-oxo-7-(2,2,2-trifluoroethyl)-4,5-dihydro-1H-pyrrolo[3,2-c]pyridin-2-yl]pyridin-2-yl}butanamide]
IC50 [1]: 6.1 nM
IC50 [2]: 5 nM

Cn1cc(CC2CC2)c2[nH]c(-c3ccnc(NC(=O)Cc4ccc(F)cc4)c3)c(-c3ccccc3)c2c1=O [Example 56, N-{4-[7-(cyclopropylmethyl)-5-methyl-4-oxo-3-phenyl-4,5-dihydro-1H-pyrrolo[3,2-c]pyridin-2-yl]pyridin-2-yl}-2-(4-fluorophenyl)acetamide]
IC50 [1]: 4.4 nM
IC50 [2]: 4.8 nM

CC(C(=O)Nc1cc(-c2[nH]c3c(c2-c2ccccc2)C(=O)NCC3(C)C)ccn1)c1ccc(F)cc1 (single isomer, unassigned) [Example 47, N-[4-(7,7-dimethyl-4-oxo-3-phenyl-4,5,6,7-tetrahydro-1H-pyrrolo[3,2-c]pyridin-2-yl)pyridin-2-yl]-2-(4-fluorophenyl)propanamide]
IC50 [1]: 13 nM
IC50 [2]: 9.6 nM

CC(C(=O)Nc1cc(-c2[nH]c3c(c2-c2ccccc2)C(=O)N(C)CC3CC2CC2)ccn1)c1ccc(F)cc1 (stereo not drawn) [Example 57, N-{4-[7-(cyclopropylmethyl)-5-methyl-4-oxo-3-phenyl-4,5,6,7-tetrahydro-1H-pyrrolo[3,2-c]pyridin-2-yl]pyridin-2-yl}-2-(4-fluorophenyl)propanamide]
IC50 [1]: 4.5 nM
IC50 [2]: 2.9 nM
